Laboratory results from patent publication US10647679B2, “N-methyl-D-aspartate receptor (NMDAR) potentiators, pharmaceutical compositions, and uses related thereto” (Emory University, priority 2015, dated 2020).
Read-outs that look alike come from different tables or passages of the source.

How the values were obtained:
Format in all cases: cell-based
[1] = molecular target: T1, recombinant rat GluN1/GluN2D (Rattus norvegicus, UniProt Q62645); test: Two-electrode voltage-clamp (TEVC) recordings in Xenopus laevis oocytes, GluN1/GluN2D
T1 construct: expressed in transfected cells; host or cells: Xenopus laevis oocytes (Ecocyte) injected with in vitro transcribed cRNA
Protocol: (§1) Data are from between 3-26 oocytes from 2-5 frogs for each compound and receptor tested.
(§2) Two-electrode voltage-clamp recordings were performed in Xenopus laevis oocytes (Ecocyte) expressing recombinant rat GluN1/GluN2A, GluN1/GluN2B, GluN1/GluN2C, GluN1/GluN2D. cRNA was transcribed in vitro (Ambion), diluted with nuclease free water, and injected at a ratio of 1:2 GluN1:GluN2 (5-10 ng total cRNA). The oocytes were kept in Barth's solution comprised of (in mM) 88 NaCl, 5 Tris-HCl, 2.4 NaHCO3, 1 KCl, 0.84 MgSO4, 0.41 CaCl2, and 0.33 Ca(NO3)2 at pH 7.4 at 15-17° C. for two to five days before experiments. Oocytes were placed into a perfusion chamber and continually washed with recording solution containing (in mM) 90 NaCl, 1.0 KCl, 0.5 BaCl2, 0.005 EDTA, and 10 HEPES at pH 7.4 (23° C.). Voltage clamp recordings were conducted at a holding potential of −40 mV. All compounds were made as 20 mM stock solutions in DMSO and dissolved to reach the final concentration in recording solution. Final DMSO content was 0.05-0.5% (vol/vol). Some oocytes expressing GluN1/GluN2A were pretreated with […] BAPTA-AM for 10 minutes or injected with […] of 2 mM K-BAPTA to prevent gradual run-up of the current response.

[2] = molecular target: T2, recombinant rat GluN1/GluN2B (Rattus norvegicus, UniProt Q00960); test: Two-electrode voltage-clamp (TEVC) recordings in Xenopus laevis oocytes, GluN1/GluN2B
T2 construct: expressed in transfected cells; host or cells: Xenopus laevis oocytes (Ecocyte) injected with in vitro transcribed cRNA
Protocol: as §1, §2

[3] = molecular target: T3, recombinant rat GluN1/GluN2A (Rattus norvegicus, UniProt Q00959); test: Two-electrode voltage-clamp (TEVC) recordings in Xenopus laevis oocytes, GluN1/GluN2A; conditions: maximum potentiation, response without modulator = 100%
T3 construct: expressed in transfected cells; host or cells: Xenopus laevis oocytes (Ecocyte) injected with in vitro transcribed cRNA
Protocol: as §2

[4] = molecular target: T4, recombinant rat GluN1/GluN2C (Rattus norvegicus, UniProt Q00961); test: Two-electrode voltage-clamp (TEVC) recordings in Xenopus laevis oocytes, GluN1/GluN2C
T4 construct: expressed in transfected cells; host or cells: Xenopus laevis oocytes (Ecocyte) injected with in vitro transcribed cRNA
Protocol: as §1, §2

[5] = molecular target: T5, recombinant rat GluN1/GluN2D (Rattus norvegicus, UniProt P35439+Q62645); test: Two-electrode voltage-clamp (TEVC) recordings in Xenopus laevis oocytes, GluN1/GluN2D
T5 construct: expressed in transfected cells; host or cells: Xenopus laevis oocytes (Ecocyte) injected with in vitro transcribed cRNA
Protocol: as §1, §2

[6] = molecular target: T6, recombinant rat GluN1/GluN2B (Rattus norvegicus, UniProt P35439+Q00960); test: Two-electrode voltage-clamp (TEVC) recordings in Xenopus laevis oocytes, GluN1/GluN2B
T6 construct: expressed in transfected cells; host or cells: Xenopus laevis oocytes (Ecocyte) injected with in vitro transcribed cRNA
Protocol: as §1, §2

[7] = molecular target: T7, recombinant rat GluN1/GluN2C (Rattus norvegicus, UniProt P35439+Q00961); test: Two-electrode voltage-clamp (TEVC) recordings in Xenopus laevis oocytes, GluN1/GluN2C
T7 construct: expressed in transfected cells; host or cells: Xenopus laevis oocytes (Ecocyte) injected with in vitro transcribed cRNA
Protocol: as §1, §2

[8] = maximum potentiation, response without modulator = 100%
[9] = maximum potentiation, response without modulator = 100%, read-out: GluN2D EC50 (μM)/Max %: Max %
[10] = maximum potentiation, response without modulator = 100%, read-out: GluN2B EC50 (μM)/Max %: Max %
[11] = maximum potentiation, response without modulator = 100%, read-out: GluN2C EC50 (μM)/Max %: Max %

T3 sequence (Q00959 23-1464, other chains not shown): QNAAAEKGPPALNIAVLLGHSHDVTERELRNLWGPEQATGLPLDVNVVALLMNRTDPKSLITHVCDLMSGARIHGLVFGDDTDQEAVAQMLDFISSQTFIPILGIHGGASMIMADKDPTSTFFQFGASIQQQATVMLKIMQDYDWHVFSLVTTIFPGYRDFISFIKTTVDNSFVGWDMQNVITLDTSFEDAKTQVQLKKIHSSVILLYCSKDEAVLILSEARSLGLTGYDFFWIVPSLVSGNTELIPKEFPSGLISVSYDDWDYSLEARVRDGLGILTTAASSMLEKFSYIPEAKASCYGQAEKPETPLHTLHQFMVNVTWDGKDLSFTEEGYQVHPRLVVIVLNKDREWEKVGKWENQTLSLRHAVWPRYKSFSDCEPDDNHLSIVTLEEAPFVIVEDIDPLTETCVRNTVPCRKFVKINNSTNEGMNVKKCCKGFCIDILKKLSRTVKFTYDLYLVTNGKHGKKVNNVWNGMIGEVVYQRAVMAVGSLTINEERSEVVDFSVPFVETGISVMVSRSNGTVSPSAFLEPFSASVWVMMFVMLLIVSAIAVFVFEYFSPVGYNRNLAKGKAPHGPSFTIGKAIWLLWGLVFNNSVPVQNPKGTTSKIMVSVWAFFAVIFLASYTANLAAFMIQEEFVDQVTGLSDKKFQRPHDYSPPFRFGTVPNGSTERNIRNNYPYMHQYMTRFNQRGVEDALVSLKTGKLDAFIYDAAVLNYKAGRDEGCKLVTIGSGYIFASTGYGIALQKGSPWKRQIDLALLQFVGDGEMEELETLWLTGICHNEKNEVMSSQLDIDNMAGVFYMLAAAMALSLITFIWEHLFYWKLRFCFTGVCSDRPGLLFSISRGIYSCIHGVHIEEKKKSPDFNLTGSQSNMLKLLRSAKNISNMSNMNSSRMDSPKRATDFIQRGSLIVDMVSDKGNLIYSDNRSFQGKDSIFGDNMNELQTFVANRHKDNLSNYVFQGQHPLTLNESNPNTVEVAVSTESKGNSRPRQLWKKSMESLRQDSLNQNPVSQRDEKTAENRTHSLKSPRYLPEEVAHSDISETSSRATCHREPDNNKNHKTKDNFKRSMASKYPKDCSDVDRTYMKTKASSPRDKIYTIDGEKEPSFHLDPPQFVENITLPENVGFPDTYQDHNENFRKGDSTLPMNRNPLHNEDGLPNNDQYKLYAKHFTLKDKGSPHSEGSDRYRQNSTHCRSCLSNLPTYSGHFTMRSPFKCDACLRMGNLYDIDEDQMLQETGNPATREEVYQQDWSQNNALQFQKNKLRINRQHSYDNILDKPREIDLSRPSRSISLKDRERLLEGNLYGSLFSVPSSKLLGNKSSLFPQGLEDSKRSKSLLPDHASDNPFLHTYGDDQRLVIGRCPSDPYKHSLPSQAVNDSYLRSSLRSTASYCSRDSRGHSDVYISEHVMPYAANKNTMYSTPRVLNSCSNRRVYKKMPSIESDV
T5 sequence (Q62645 28-1323, other chains not shown): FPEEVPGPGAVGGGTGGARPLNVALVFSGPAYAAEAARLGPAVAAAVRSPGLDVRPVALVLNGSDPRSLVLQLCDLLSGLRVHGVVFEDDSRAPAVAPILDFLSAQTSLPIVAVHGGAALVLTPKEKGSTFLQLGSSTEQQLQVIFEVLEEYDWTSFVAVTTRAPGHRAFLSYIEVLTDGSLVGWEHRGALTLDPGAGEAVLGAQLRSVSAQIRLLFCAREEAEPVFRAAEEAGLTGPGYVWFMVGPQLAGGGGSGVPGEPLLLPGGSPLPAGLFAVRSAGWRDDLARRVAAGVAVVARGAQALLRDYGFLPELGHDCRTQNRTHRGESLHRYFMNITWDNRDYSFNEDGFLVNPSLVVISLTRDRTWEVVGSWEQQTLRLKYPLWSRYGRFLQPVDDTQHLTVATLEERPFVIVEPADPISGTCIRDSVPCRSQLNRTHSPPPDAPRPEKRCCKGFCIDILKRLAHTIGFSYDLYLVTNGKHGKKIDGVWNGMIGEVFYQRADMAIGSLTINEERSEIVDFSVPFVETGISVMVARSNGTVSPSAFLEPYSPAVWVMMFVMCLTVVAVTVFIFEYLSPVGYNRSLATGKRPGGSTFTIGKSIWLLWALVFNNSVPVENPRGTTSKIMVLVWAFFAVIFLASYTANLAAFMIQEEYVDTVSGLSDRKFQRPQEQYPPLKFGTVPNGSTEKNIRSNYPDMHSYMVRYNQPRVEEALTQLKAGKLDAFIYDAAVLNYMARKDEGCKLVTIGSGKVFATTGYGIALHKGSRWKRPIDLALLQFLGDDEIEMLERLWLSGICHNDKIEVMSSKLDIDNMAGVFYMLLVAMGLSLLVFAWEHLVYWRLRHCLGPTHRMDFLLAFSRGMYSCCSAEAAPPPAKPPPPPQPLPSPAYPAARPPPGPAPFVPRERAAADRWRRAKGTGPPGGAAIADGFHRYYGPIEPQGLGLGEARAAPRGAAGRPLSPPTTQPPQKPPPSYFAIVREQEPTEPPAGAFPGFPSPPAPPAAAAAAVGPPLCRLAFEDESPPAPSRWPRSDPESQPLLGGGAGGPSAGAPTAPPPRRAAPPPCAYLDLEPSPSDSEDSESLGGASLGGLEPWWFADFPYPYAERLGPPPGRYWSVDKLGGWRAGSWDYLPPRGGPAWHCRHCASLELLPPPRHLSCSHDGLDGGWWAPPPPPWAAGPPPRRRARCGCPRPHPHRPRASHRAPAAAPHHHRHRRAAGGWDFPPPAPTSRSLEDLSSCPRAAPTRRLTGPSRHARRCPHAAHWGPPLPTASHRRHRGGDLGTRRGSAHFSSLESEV
T7 sequence (Q00961 20-1237, other chains not shown): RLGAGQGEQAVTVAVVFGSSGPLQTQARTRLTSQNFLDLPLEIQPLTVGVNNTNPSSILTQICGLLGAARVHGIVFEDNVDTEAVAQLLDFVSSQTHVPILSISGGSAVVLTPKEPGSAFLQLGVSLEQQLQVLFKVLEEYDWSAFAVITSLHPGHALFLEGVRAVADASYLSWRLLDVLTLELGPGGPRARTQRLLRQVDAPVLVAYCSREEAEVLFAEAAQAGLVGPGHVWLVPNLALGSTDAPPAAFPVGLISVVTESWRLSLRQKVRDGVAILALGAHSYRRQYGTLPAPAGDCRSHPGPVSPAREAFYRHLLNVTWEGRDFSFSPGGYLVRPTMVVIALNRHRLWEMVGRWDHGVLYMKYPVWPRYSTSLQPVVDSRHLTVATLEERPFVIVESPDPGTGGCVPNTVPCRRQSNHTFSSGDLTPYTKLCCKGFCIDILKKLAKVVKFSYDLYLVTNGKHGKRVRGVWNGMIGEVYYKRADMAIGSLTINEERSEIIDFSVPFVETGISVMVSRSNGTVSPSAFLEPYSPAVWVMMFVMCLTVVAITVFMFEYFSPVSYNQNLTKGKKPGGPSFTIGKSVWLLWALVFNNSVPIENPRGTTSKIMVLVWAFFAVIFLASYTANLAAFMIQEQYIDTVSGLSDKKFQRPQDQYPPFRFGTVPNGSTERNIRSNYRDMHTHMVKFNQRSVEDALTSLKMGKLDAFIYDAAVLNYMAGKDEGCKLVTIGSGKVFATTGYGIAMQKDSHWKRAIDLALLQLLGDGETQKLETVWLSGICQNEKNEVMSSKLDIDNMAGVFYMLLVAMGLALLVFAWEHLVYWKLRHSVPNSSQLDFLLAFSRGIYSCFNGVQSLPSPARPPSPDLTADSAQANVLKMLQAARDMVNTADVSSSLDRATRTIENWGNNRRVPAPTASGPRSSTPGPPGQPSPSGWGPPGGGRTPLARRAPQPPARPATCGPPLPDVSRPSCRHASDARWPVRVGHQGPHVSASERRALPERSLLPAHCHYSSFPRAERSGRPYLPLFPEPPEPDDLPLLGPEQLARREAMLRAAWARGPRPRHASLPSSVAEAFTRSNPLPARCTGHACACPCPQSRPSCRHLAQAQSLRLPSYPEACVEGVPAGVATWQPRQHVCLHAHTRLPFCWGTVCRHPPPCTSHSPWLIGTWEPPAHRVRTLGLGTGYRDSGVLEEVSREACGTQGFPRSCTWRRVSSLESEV
T1 sequence (Q62645 28-1323, other chains not shown): as the sequence (Q62645 28-1323, other chains not shown) above
T4 sequence (Q00961 20-1237, other chains not shown): as the sequence (Q00961 20-1237, other chains not shown) above

CCOc1ccc(OCC2c3ccc(OC(C)C)cc3CCN2C(=S)c2ccc(F)c(Cl)c2)cc1 (centres unmarked) [1180-165]
GluN2D EC50 (μM)/Max %: Max % [1, 8]: 141% | GluN2B EC50 (μM)/Max %: Max % [2, 8]: 226% | GluN2A EC50 (μM)/Max %: Max % [3]: 191% | GluN2C EC50 (μM)/Max %: Max % [4, 8]: 162%

COc1ccc(OCC2c3ccc(OC(C)C)cc3CCN2C(=S)c2cccc(F)c2)cc1 (centres unmarked) [1180-166]
Emax [5, 9]: 200% | Emax [6, 10]: 307% | GluN2A EC50 (μM)/Max %: Max % [3]: 179% | Emax [7, 11]: 233%

COc1ccc(OCC2c3ccc(OC(C)C)cc3CCN2C(=O)c2cccc(F)c2)cc1 (centres unmarked) [1180-140]
Emax [5, 9]: 521% | Emax [6, 10]: 450% | GluN2A EC50 (μM)/Max %: Max % [3]: 159% | Emax [7, 11]: 304%

COc1ccc(OC[C@H]2c3ccc(OC(C)C)cc3CCN2C(=O)c2cccc(Cl)c2)cc1 [(R)-(+)-1180-55]
EC50 ([5]; fitted when potentiation at 30 μM exceeded 120%, Tables 3, 5-7, read-out: EC50 (max.) (μM %) GluN2D: fitted EC50): 1.3 µM | Emax ([5]; percentage of the initial glutamate (100 μM) and glycine (30 μM) current, read-out: EC50 (max.) (μM %) GluN2D: fitted maximum response): 384% | I10 μM/Icontrol (mean ± SEM, %) GluN2D ([1]; 10 μM compound, Table 3): 345% | I10 μM/Icontrol (mean ± SEM, %) GluN2B ([2]; 10 μM compound, Table 3): 150% | EC50 ([6]; fitted when potentiation at 30 μM exceeded 120%, Tables 3, 5-7, read-out: EC50 (max.) (μM %) GluN2B: fitted EC50): 5 µM | Emax ([6]; percentage of the initial glutamate (100 μM) and glycine (30 μM) current, read-out: EC50 (max.) (μM %) GluN2B: fitted maximum response): 167% | Emax ([7]; percentage of the initial glutamate (100 μM) and glycine (30 μM) current, read-out: EC50 (max.) (μM %) GluN2C: fitted maximum response): 342% | I10 μM/Icontrol (mean ± SEM, %) GluN2C ([4]; 10 μM compound, Table 3): 323%
